What was measured:
[1] = test system: mice; details: cited from earlier work
[2] = Antioxidant activity of mouse food and pine bark extract (Table 2); assay type: biochemical
Procedure: The experimental mice were fed ad libitum on Archer's mouse food pellets dosed with measured doses of pine bark extract manufactured as above. Preferably, the present composition is administered in a form selected from the group including: a tablet; a capsule; a suppository; an injection; a suspension; a drink; a tonic; a syrup; a powder; an ingredient in solid foods; an ingredient in liquid foods; and combinations thereof, all of which are considered equivalent. Most preferably, the composition is administered orally as a powder mixed with food. The antioxidant composition of the food was as follows (Table 2 below): […]

[3] = test system: rodent; details: rodent trials, dietary supplementation; cited from earlier work

Compound	effect on maximum lifespan ([1]; mice fed supplement)	toxicity ([1]; mouse, in vivo)	EC50 ([2]; antioxidant composition of sample) [µg/mL]	RELATIVE ANTIOXIDANT ACTIVITY ([2]; relative to mouse pellet = 1)	effect on mean survivorship and maximum life span [3]
OCCS [2-mercaptoethanol]	increase in maximum lifespan	toxic			
O=C1O[C@H]([C@@H](O)CO)C(O)=C1O [Vitamin C]			3.79	1.76	Increases in mean survivorship, but not maximum life span
vitamin E					Increases in mean survivorship, but not maximum life span
